From ChEMBL document CHEMBL1130888, “Synthesis and anti-HIV activities of symmetrical N1,N3-dibenzyl-2-hydroxy-propane derivatives” (Bioorg Med Chem Lett, 1998) come the findings set out here.

Data set [1] is described as follows: Partition coefficient (logP). The class given is physicochemical. As to conditions: octanol/water; call rule not given here.
Data set [2] relates to MT4. The data set can be described thus: Inhibitory activity against syncytia formation in HIV-infected MT-4 cells was evaluated. The format is functional, cell-based. As to conditions: Homo sapiens.
For data set [3], the system named is MT4. The data set is described as follows: Cytotoxicity was evaluated against uninfected MT-4 cells. The format is functional. The following applies: Homo sapiens.
Data set [4] relates to MT4. The data set can be described thus: Inhibitory activity against syncytia formation in HIV-infected MT-4 cells was evaluated; Inactive. The format is functional, cell-based, Homo sapiens.
Data set [5] deals with MT4. The data set is described as follows: Inhibitory activity against syncytia formation in HIV-infected MT-4 cells was evaluated; 1-10 uM. The format is functional, cell-based. The following applies: Homo sapiens.

Turning to `O=C(NCc1ccccc1)N(Cc1ccccc1)CC(O)CN(Cc1ccccc1)C(=O)NCc1ccccc1`, the lipophilicity (logP) in data set [1] (read-out: logP) amounted to 5.12. Also, in data set [2], it took 0.1 µM to reach half-maximal inhibition (IC50). In addition, the CC50 in data set [3] was more than 100 µM.

For the molecule `CCCCCCCCOC(=O)N(Cc1ccccc1)CC(O)CN(Cc1ccccc1)C(=O)OCCCCCCCC`, the lipophilicity (logP) in data set [1] is recorded as 10.35. The same molecule showed a concentration for half-maximal inhibition (IC50) in data set [2] of 10 µM. Besides, the CC50 in data set [3] amounted to 50 µM.

As to `CCOC(=O)N(Cc1ccccc1)CC(O)CN(Cc1ccccc1)C(=O)OCC`, the lipophilicity (logP) in data set [1] (read-out: logP) is 3.99. In data set [4], the 50% inhibitory concentration (IC50) result is recorded as “Not Active”. The 50% cytotoxic concentration (CC50) in data set [3] came out at 50 µM.

Consider `CC(C)(C)NC(=O)N(Cc1ccccc1)CC(O)CN(Cc1ccccc1)C(=O)NC(C)(C)C`, for which, in data set [1] (read-out: logP), the lipophilicity (logP) is 4.12. This molecule yielded an IC50 in data set [2] of 1 µM. The CC50 in data set [3] was more than 100 µM.

Regarding `CC(C)COC(=O)N(Cc1ccccc1)CC(O)CN(Cc1ccccc1)C(=O)OCC(C)C`, the logP in data set [1] (read-out: logP) stood at 5.75. This molecule registered a half-maximal inhibitory concentration (IC50) in data set [2] of 1 µM. In data set [3], this molecule yielded a CC50 of 100 µM.

For `O=C(OCc1ccccc1)N(Cc1ccccc1)CC(O)CN(Cc1ccccc1)C(=O)OCc1ccccc1`, the logP in data set [1] (read-out: logP) is 6.48. Besides, the IC50 in data set [2] is less than 0.1 µM. For the same molecule, the midpoint of cytotoxicity in data set [3], the CC50, lay at 10 µM.

With `CC(C)(C)OC(=O)N(Cc1ccccc1)CC(O)CN(Cc1ccccc1)C(=O)OC(C)(C)C`, in data set [1] (read-out: logP), the logP is 5.39. In data set [3], this molecule came in with a cytotoxic concentration (CC50) of more than 100 µM. For the same molecule, the IC50 in data set [5] worked out at 1 µM.

Regarding `O=C(N1CCOCC1)N(Cc1ccccc1)CC(O)CN(Cc1ccccc1)C(=O)N1CCOCC1`, the logP in data set [1] (read-out: logP) is 0.04. In data set [4], the IC50 result is “Not Active”. The same molecule had a 50% cytotoxic concentration (CC50) in data set [3] of 100 µM.

Regarding `O=C(OCC1CCCCO1)N(Cc1ccccc1)CC(O)CN(Cc1ccccc1)C(=O)OCC1CCCCO1` (stereo unspecified), in data set [1] (read-out: logP), the logP came out at 4.07. In addition, the concentration for half-maximal inhibition (IC50) entry in data set [4] is recorded as “Not Active”. Also, in data set [3], the CC50 worked out at 50 µM.

Consider `CN(C(=O)N(Cc1ccccc1)CC(O)CN(Cc1ccccc1)C(=O)N(C)c1ccccc1)c1ccccc1`, for which the log partition coefficient (logP) in data set [1] (read-out: logP) came out at 7.06. In data set [2], this molecule showed an IC50 of 1 µM. In data set [3], this molecule returned a CC50 of more than 100 µM.

For `O=C(OC1CCOC1)N(Cc1ccccc1)CC(O)CN(Cc1ccccc1)C(=O)OC1CCOC1` (stereo unspecified), in data set [1] (read-out: logP), the logP amounted to 2.48. Further, the IC50 result in data set [4] was “Not Active”. In addition, in data set [3], half-maximal cytotoxicity (CC50) was put at 50 µM.

`O=C(OCC1CCCO1)N(Cc1ccccc1)CC(O)CN(Cc1ccccc1)C(=O)OCC1CCCO1` (stereo unspecified): the log partition coefficient (logP) in data set [1] (read-out: logP) came to 2.94. Besides, the concentration for half-maximal inhibition (IC50) result in data set [4] is reported as “Not Active”. The midpoint of cytotoxicity in data set [3], the CC50, lay at 50 µM.

Usually logP stands for the decadic logarithm of the partition coefficient of the neutral form, usually between octanol and water. By IC50 is commonly meant the concentration that gives 50% inhibition. A high value points to a need for much substance. One may read the CC50 as the concentration at which the toxic effect on the cells reaches its halfway point.
